Reference: patent US9096504B2, “Controlled chemical release of hydrogen sulfide” (Washington State University, priority 2010, dated 2015)

How the values were obtained:
[1] = Methylene blue experiment for H2S release in PBS buffer in presence of cysteine or GSH; format: physicochemical; settings: for GSH Peaking time / GSH [H2S] at peaking time / Cys Peaking time / Cys [H2S] at peaking time: PBS buffer pH 7.4, donor 150 μM; for GSH Peaking time / GSH [H2S] at peaking time: 1.5 mM GSH, experimental period 3 hours; for Cys Peaking time / Cys [H2S] at peaking time: 1.5 mM cysteine; for GSH Peaking time (min) / GSH [H2S] at peaking time (μM) / Cys Peaking time (min) / Cys [H2S] at peaking time (μM): footnote a: donors 40 μM and cysteine 4.0 mM
Procedure: Na2S Standard Curve for H2S Release
2.0 mM Na2S stock solution was prepared as described in previous section. Five aliquots of Na2S solution at 3.75 μL, 7.50 μL, 15.0 μL, 45.0 μL, and 112.5 μl were injected into the 4-mL vials containing H2O (1.0 mL), zinc acetate (1% w/v, 100 μL), N,N-dimethyl-1,4-phenylenediamine sulfate (200 μL, 20 mM) in 7.2 M HCl and ferric chloride (200 μL, 30 mM) in 1.2 M HCl, respectively. Stir the resultant solution for 15 minutes at room temperature. The absorbance (670 nm) of aliquots was determined using a UV-Vis spectrometer.
Cysteine stock solution in H2O (400 mM, 112.5 μL) and N-(benzoylthio)benzamide 2 stock solution in THF (40 mM, 112.5 μL) were added into PBS buffer solution (30 mL, pH=7.4) containing EDTA (50 mM, 60 μL), respectively. Every 3 minute, 1.0 mL of aliquots were taken to 4-mL vials containing, zinc acetate (1% w/v, 100 μL), N,N-dimethyl-1,4-phenylenediamine sulfate (200 μL, 20 mM) in 7.2 M HCl and ferric chloride (200 μL, 30 mM) in 1.2 M HCl within 3 hours. Then the absorbance (670 nm) was determined using a UV-Vis spectrometer.
The initial concentrations of H2S-donors shown below were 150 μM and the detection of H2S released from these molecules was measured in presence of 1.5 mM of cysteine or GSH, unless otherwise indicated.

[2] = system: mice subjected to ischemia followed by reperfusion; assay: Mouse model of ischemia followed by reperfusion (Elrod et al.); format: in vivo; settings: compared to vehicle treated mice
Procedure: The effects of compound 2 have been tested using the mouse model of Elrod et al. (Proc. Natl. Acad. Sci. USA 2007, 104, 15560). Briefly, mice were subjected to ischemia followed by reperfusion. During reperfusion, compound 2 was administered to the mice.

[3] = H2S release measurement in plasma (colorimetry method); format: in vitro ADME, bovine/calf; settings: plasma containing ~500 μM cysteine
Procedure: It is known that plasma contains significant amount of free cysteine. We therefore measured H2S generation of 2-13 in plasma (containing ˜500 μM cysteine) using a colorimetry method.
To 0.5 mL of bovine/calf plasma was added […] containing zinc acetate (1% w/v, 100 μL) and trichloroacetic acid (10% w/v, 600 μL). The mixture was allowed to centrifuge for 10 min (5000 g). The precipitate was filtered out and 1.2 mL of the clear solution was transferred into a 2-mL vial containing N,N-dimethyl-1,4-phenylenediamine sulfate (150 μL, 20 mM) in 7.2 M HCl and ferric chloride (150 μL, 30 mM) in 1.2 M HCl. […] The absorbance (670 nm) of aliquots of the resulting solution (1.5 mL) was determined using a UV-VIS spectrometer. The concentration of MB^+ was then converted to the concentration of H2S according to the reaction equation shown above and the calibration curve was generated by plotting the absorbance versus [H2S].
To 2.0 mL of bovine/calf plasma (containing cysteine […]) was added 2 mL water solution containing 5a (25 μl, of 80 mM in DMSO). […] Subsequently, N,N-dimethyl-p-phenylenediamine sulfate (20 mM, 150 μL) in 7.2 M HCl was added followed by FeCl3 (30 mM, 150 μL) in 1.2 M HCl, and absorbance (670 nm) of aliquots of the resulting solution (1.5 mL) was determined 20 minutes thereafter using a UV-Vis spectrometer.

GSH [H2S] at peaking time [1] [µM] | Cys [H2S] at peaking time [1] [µM] | Compound | GSH Peaking time [1] [min] | Cys Peaking time [1] [min] | further results
103.8 | 130.4 | CC(C(=O)SNC(=O)c1ccccc1)c1ccccc1 (stereo not drawn) [Compound 31] | 52 | 36 | 
104.1 | 110.6 | O=C(NSC(=O)c1ccccc1)c1ccc(F)cc1 [Compound 26] | 42 | 34 | 
96.6 | 106.4 | CC(C)(C)C(=O)SNC(=O)c1ccccc1 [Compound 21] | 90 | 55 | 
116.6 | 120.9 | CCC(=O)NSC(=O)c1ccccc1 [Compound 28] | 50 | 34 | 
98.9 | 102.8 | CCCC(=O)NSC(=O)c1ccccc1 [Compound 29] | 39 | 30 | 
104.9 | 108.6 | O=C(Cc1ccccc1)SNC(=O)c1ccccc1 [Compound 30] | 44 | 30 | 
 | 45.6 | O=C(NSC(=O)C(c1ccccc1)c1ccccc1)c1ccccc1 [Compound 32] |  | 60 | 
18.3 | 25.8 | COC(=O)C(CSSC(=O)c1ccccc1)NC(=O)c1ccccc1 (stereo not drawn) [Compound 33] | 45 | 35 | 
149.6 | 145.4 | CC(=O)NSC(=O)c1ccccc1 [Compound 27] | 39 | 30 | 
130.5 | 146.9 | Cc1ccccc1C(=O)NSC(=O)c1ccccc1 [Compound 24] | 30 | 24 | 
137 | 149 | CC(=O)NC(C(=O)NCc1ccccc1)C(C)(C)SSC(=O)c1ccccc1 (stereo not drawn) [Compound 34] | 39 | 33 | melting point: 143 to 145 °C
122.3 | 111.3 | CCCC(=O)SNC(=O)c1ccccc1 [Compound 22] | 40 | 39 | 
84.3 | 83.6 | O=C(NSC(=O)c1ccccc1)c1cccc(Cl)c1 [Compound 25] | 27 | 26 | 

More lines, now with the values behind:

Compound | GSH [H2S] at peaking time [1] [µM] | Cys [H2S] at peaking time [1] [µM] | GSH Peaking time [1] [min] | Cys Peaking time [1] [min] | further results
CN(C)c1ccc(C(=O)SNC(=O)c2ccccc2)cc1 [Compound 13] |  |  |  |  | GSH Peaking time (min) [1]: 30 ^a min; GSH [H2S] at peaking time (μM) [1]: 15.0 ^a μM; Cys Peaking time (min) [1]: 22 ^a min; Cys [H2S] at peaking time (μM) [1]: 17.5 ^a μM
O=C(NSC(=O)c1cccc(Cl)c1)c1ccccc1 [Compound 5] | 146.5 | 142.1 | 36 | 24 | 
O=C(NSC(=O)C1CCCCC1)c1ccccc1 [Compound 16] | 81.9 | 72.4 | 36 | 18 | 
Cc1ccc(C(=O)SNC(=O)c2ccccc2)cc1 [Compound 8] | 100.3 | 93.9 | 30 | 27 | 
COc1cccc(C(=O)SNC(=O)c2ccccc2)c1 [Compound 10] | 133.6 | 111.6 | 20 | 25 | 
O=C(NSC(=O)c1ccccc1)c1ccccc1 [Compound 2, N-(benzoylthio)benzamide] | 140.4 | 143.6 | 39 | 24 | reduction in infarct size per area-at-risk (INF/AAR) ([2]; 100 μg/kg bolus during reperfusion, maximal): 40%; infarct size per area-at-risk (INF/AAR), dose dependence ([2]; administered during reperfusion): dose-dependent reduction; H2S generation in plasma [3]: time-dependent H2S release
COc1ccc(C(=O)SNC(=O)c2ccccc2)cc1 [Compound 11] | 100.5 | 92.4 | 40 | 27 | 
O=C(NSC(=O)c1ccc(C(F)(F)F)cc1)c1ccccc1 [Compound 4] | 59.5 | 110.0 | 27 | 26 | 
CC(C)C(=O)SNC(=O)c1ccccc1 [Compound 18] | 101.1 | 131.6 | 52 | 36 | 
Cc1ccccc1C(=O)SNC(=O)c1ccccc1 [Compound 6] | 61.9 | 85.0 | 45 | 34 | 
O=C(NSC(=O)C1CCCC1)c1ccccc1 [Compound 17] | 110.9 | 100.6 | 32 | 18 | 
Cc1cccc(C(=O)SNC(=O)c2ccccc2)c1 [Compound 7] | 131.0 | 141.8 | 39 | 28 | 
CC(=O)SNC(=O)c1ccccc1 [Compound 19] | 116.1 | 132.6 | 18 | 12 | 
O=C(NSC(=O)c1ccc(F)cc1)c1ccccc1 [Compound 3] | 122.6 | 143.1 | 36 | 18 | 
CCC(=O)SNC(=O)c1ccccc1 [Compound 20] | 103.6 | 106.1 | 35 | 28 | 
COc1ccccc1C(=O)SNC(=O)c1ccccc1 [Compound 9] | 48.3 | 52.8 | 48 | 36 | 
O=C(NSC(=O)c1ccccc1)Nc1ccccc1 | 23.4 | 33.9 | 30 | 15 | 
COc1ccc(C(=O)SNC(=O)c2ccccc2)c(OC)c1 [Compound 12] |  |  |  |  | GSH Peaking time (min) [1]: 120 ^a min; GSH [H2S] at peaking time (μM) [1]: 13.2 ^a μM; Cys Peaking time (min) [1]: 50 ^a min; Cys [H2S] at peaking time (μM) [1]: 23.0 ^a μM
